{
  "source": "patent US11512085B2",
  "about": "“Heteroaryl compound having drug activity” (SHANGHAI DUDE MEDICAL TECHNOLOGY CO., LTD, priority 2017, dated 2022)",
  "key": {"[1]": {"tested_on": "T cells", "test": "T cell activation (CD3/CD28 dynabeads, CD69 staining)", "format": "cell-based, Human", "conditions": "concentration of 10 uM", "procedure": "Biological Embodiment 3: Influences of In-Vitro Test Compounds on PBMC/B/T Cell Activation\n4.3 Isolation of B Cells and T Cells\nCell Isolation Programs Shall Refer to […] Kits\n4.4.3 Activation of T Cells\nThe co-culture system is as follows:\nAntibody Staining and Data Analysis\nAntibody staining was performed within 24 hours […] according to a standard method.\n4.5.2 Activation of T Cells\nFITC Mouse Anti-Human CD4\nPerCP-Cy™5.5 Mouse Anti-Human CD8\nLIVE/DEAD Fixable Violet Dead Cell Stain Kit"}, "[2]": {"tested_on": "p-Btk/t-Btk", "test": "Western blotting of p-Btk/t-Btk in anti-IgG stimulated DOHH2 cells", "format": "cell-based", "conditions": "DOHH2 cells, 5, 100, 2000 nM, 1 h, anti-IgG stimulation", "procedure": "Biological Embodiment 4: Analysis of Influences of Test Compounds on p-Btk/t-Btk, p-PLCγ/t-PLCγ and p-Erk/t-Erk Expression Levels of DOHH2 Cells by Virtue of Western Blotting\n1) DOHH2 cells on a logarithmic phase were collected;\n2) a cell concentration was adjusted to a needed concentration;\n3) 2 ml of cell suspension was added into a 6-well plate for performing culture, three different concentrations, that is, 5 nM, 100 nM and 2000 nM, of test samples were respectively set, and each concentration was repeated once;\n4) test samples were added into plate wells, and DMSO served as control, wherein a final concentration of the DMSO was 0.1%;\n5) culture was performed for 1 h; and […]\n6. protein extraction and quantification […]\n5) a protein concentration was determined by using Pierce™ BCA Protein Assay Kit; and\n6) according to BCA protein quantification results, all samples were diluted to the same final concentration by adding 4×LDS sample buffer and 10× sample reducing agent into the RIPA buffer solution, and the solution was heated at 100° C. for 10 min. […]\n10) chemiluminiscence was detected by Tanon 5200 multi.\n7. Quantification of strip intensity\nIntensity of each strip was quantified by using Image quant densitometry software. […]"}, "[3]": {"tested_on": "WSU-NHL", "test": "In vitro tumor cell proliferation (CellTiter-Glo), WSU-NHL", "format": "cell-based", "conditions": "Homo sapiens, 72 h, read-out: Growth IC50", "procedure": "(§1) Biological Embodiment 8: Study on Effects of Active Compounds for Inhibiting In Vitro Tumor Cell Proliferation\n(§2) Promega CellTiter-Glo cell activity detection kit by luminescence (Promega-G7573).\n(§3) Tumor cell lines were cultured in a 5% of CO2 incubator at 37° C. according to respective culture conditions; and periodic passage was performed, and cells positioned in a logarithmic phase were taken for planking.\n(§4) 3) 90 μL of cell suspension was added into each well of the culture plate, and a culture solution containing no cell was added into blank control;\n(§5) 4) the culture plate was cultured overnight in the 5% of CO2 incubator having relative humidity of 100% at 37° C.\n(§6) Preparation of a 400× compound storage plate: the compound was diluted from the maximum concentration gradient to the lowest concentration with DMSO. […]\n(§7) The following steps were performed according to the specification of the Promega CellTiter-Glo cell activity detection kit by luminescence (Promega-G7573). […]\n(§8) 9) the luminescence signal was detected on the 2104 EnVision plate reader."}, "[4]": {"tested_on": "Ramos", "test": "In vitro tumor cell proliferation (CellTiter-Glo), Ramos", "format": "cell-based", "conditions": "Homo sapiens, 72 h, read-out: Growth IC50", "procedure": "as §1, §2, §3, §4, §5, §6, §7, §8"}},
  "data": [
    {"smiles": "C=CC(=O)NN1CCCC(n2nc(-c3ccc(Oc4ccccc4)cc3)c3c(N)ncnc32)C1", "note": "(stereo not shown) [Embodiment 6, N-(3-(4-amino-3-(4-phenoxyphenyl)-1H-pyrazolo[3,4-D]pyrimidine-1-yl)-1-piperidyl)-acrylamide]", "values": [
      {"measurement": "T cell activity inhibition effect", "setting": "[1]", "result": "T cell activity inhibition effect"},
      {"measurement": "relative level of p-Btk/t-Btk", "setting": "[2]", "result": "obviously decreased"},
      {"measurement": "IC50", "setting": "[3]", "result": 1020, "unit": "nM"},
      {"measurement": "IC50", "setting": "[4]", "result": 1400, "unit": "nM"}
    ]}
  ]
}
